This passage reports IC50 and Kd results from PMC5065007 (Journal of the American Chemical Society, 2016).

This test addresses δPKC (Homo sapiens, UniProt Q05655). Kind of test: AGILE label-free binding assay, δPKC to immobilized peptide.

Where no end group is shown, it is not given here.

δPKC, sequence (Q05655 whole entry): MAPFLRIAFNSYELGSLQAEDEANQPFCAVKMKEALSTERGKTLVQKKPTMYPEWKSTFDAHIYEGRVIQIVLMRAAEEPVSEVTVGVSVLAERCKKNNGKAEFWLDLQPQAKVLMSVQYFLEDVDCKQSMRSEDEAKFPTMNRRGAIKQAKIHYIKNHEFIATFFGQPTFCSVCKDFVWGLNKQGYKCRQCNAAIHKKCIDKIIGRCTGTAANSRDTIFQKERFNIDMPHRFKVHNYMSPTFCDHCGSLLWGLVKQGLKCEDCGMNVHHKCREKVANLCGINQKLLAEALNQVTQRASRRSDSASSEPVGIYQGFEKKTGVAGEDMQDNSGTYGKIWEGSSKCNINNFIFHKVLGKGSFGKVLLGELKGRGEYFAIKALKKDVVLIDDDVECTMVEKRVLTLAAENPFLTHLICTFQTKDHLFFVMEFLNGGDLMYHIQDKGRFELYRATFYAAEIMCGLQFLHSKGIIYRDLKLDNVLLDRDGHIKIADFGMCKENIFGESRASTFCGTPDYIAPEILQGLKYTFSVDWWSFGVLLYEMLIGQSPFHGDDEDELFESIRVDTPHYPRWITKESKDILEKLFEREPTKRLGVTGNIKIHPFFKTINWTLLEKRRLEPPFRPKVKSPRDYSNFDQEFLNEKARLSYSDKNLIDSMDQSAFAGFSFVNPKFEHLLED

As a reminder, the IC50 is the concentration at which inhibition is half-maximal. The low end stands for greater potency in that assay, the high end for weaker potency in that assay. As a reminder, the Kd is the concentration at which binding is half-saturated. The low end stands for a tighter complex, the high end for a looser complex. In turn, ALSAER [ψPDK analog] yielded a half-maximal inhibitory concentration (IC50) of 1250 nM and a Kd of 1250 nM.

Regarding ALSTER [ψPDK], the IC50 is 53 nM and the Kd amounted to 53 ± 19 nM.
